Data from the supplement of paper PMC4932681.

How the values were obtained:
[1] = test system: T-47D Tam1; test: drug sensitivity score (DSS) (DSS (dimensionless)); higher = more sensitive; extreme values may be limits of the assay; settings: 4-OH-tamoxifen in medium 1 µM; 72 h
In short: (§1)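 CellTiter-Glo viability was the readout, taken on a PHERAstar and normalised to vehicle-only and positive controls. It was measured after breast cancer cell lines and their resistant derivatives spent 72 h at 37 °C in 384-well plates containing library drugs at five concentrations spanning a 10 000-fold range, with 1 μM of the selecting drug in the medium of resistant lines. From logistic dose–response fits in the Breeze pipeline came drug sensitivity score, relative IC50 (curve midpoint) and top-dose inhibition.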

[2] = test system: BT-474; test: as above; settings: 72 h
In short: as §1

[3] = test system: T-47D; test: as above; settings: 72 h
In short: as §1

[4] = test system: ZR-75-1 Tam1; test: as above; settings: 4-OH-tamoxifen in medium 1 µM; 72 h
In short: as §1

[5] = test system: ZR-75-1 Tam2; test: as above; settings: 4-OH-tamoxifen in medium 1 µM; 72 h
In short: as §1

[6] = test system: BT-474 Tam1; test: as above; settings: 4-OH-tamoxifen in medium 1 µM; 72 h
In short: as §1

[7] = test system: MCF-7; test: as above; settings: 72 h
In short: as §1

[8] = test system: T-47D Tam2; test: as above; settings: 4-OH-tamoxifen in medium 1 µM; 72 h
In short: as §1

[9] = test system: MCF-7 Tam1; test: as above; settings: 4-OH-tamoxifen in medium 1 µM; 72 h
In short: as §1

[10] = test system: ZR-75-1; test: as above; settings: 72 h
In short: as §1

[11] = test system: BT-474 Tam2; test: as above; settings: 4-OH-tamoxifen in medium 1 µM; 72 h
In short: as §1

[12] = test system: T-47D Tam1; test: relative IC50 (midpoint of fitted logistic curve, plateau may be below 50% inhibition; CellTiter-Glo viability); higher = less potent; settings: 4-OH-tamoxifen in medium 1 µM; 72 h
In short: as §1

[13] = test system: BT-474; test: as above; settings: 72 h
In short: as §1

[14] = test system: T-47D; test: as above; settings: 72 h
In short: as §1

[15] = test system: ZR-75-1 Tam1; test: as above; settings: 4-OH-tamoxifen in medium 1 µM; 72 h
In short: as §1

[16] = test system: ZR-75-1 Tam2; test: as above; settings: 4-OH-tamoxifen in medium 1 µM; 72 h
In short: as §1

[17] = test system: BT-474 Tam1; test: as above; settings: 4-OH-tamoxifen in medium 1 µM; 72 h
In short: as §1

[18] = test system: MCF-7; test: as above; settings: 72 h
In short: as §1

[19] = test system: T-47D Tam2; test: as above; settings: 4-OH-tamoxifen in medium 1 µM; 72 h
In short: as §1

[20] = test system: MCF-7 Tam1; test: as above; settings: 4-OH-tamoxifen in medium 1 µM; 72 h
In short: as §1

[21] = test system: ZR-75-1; test: as above; settings: 72 h
In short: as §1

[22] = test system: BT-474 Tam2; test: as above; settings: 4-OH-tamoxifen in medium 1 µM; 72 h
In short: as §1

Row | Structure (SMILES) | relative IC50 [12] | relative IC50 ([13]; 4-OH-tamoxifen in medium 0 µM) | relative IC50 ([13]; 4-OH-tamoxifen in medium 1 µM) | relative IC50 ([14]; 4-OH-tamoxifen in medium 0 µM) | relative IC50 ([14]; 4-OH-tamoxifen in medium 1 µM) | relative IC50 [17] | relative IC50 ([18]; 4-OH-tamoxifen in medium 0 µM) | relative IC50 ([18]; 4-OH-tamoxifen in medium 1 µM) | relative IC50 [19] | relative IC50 [20] | relative IC50 [22] | drug sensitivity score [1] | drug sensitivity score ([2]; 4-OH-tamoxifen in medium 0 µM) | drug sensitivity score ([2]; 4-OH-tamoxifen in medium 1 µM) | drug sensitivity score ([3]; 4-OH-tamoxifen in medium 0 µM) | drug sensitivity score ([3]; 4-OH-tamoxifen in medium 1 µM) | drug sensitivity score [4] | drug sensitivity score [5] | drug sensitivity score [6] | drug sensitivity score ([7]; 4-OH-tamoxifen in medium 0 µM) | drug sensitivity score ([7]; 4-OH-tamoxifen in medium 1 µM) | drug sensitivity score [8] | drug sensitivity score [9] | drug sensitivity score ([10]; 4-OH-tamoxifen in medium 0 µM) | drug sensitivity score ([10]; 4-OH-tamoxifen in medium 1 µM) | drug sensitivity score [11] | relative IC50 [15] | relative IC50 [16] | relative IC50 ([21]; 4-OH-tamoxifen in medium 0 µM) | relative IC50 ([21]; 4-OH-tamoxifen in medium 1 µM)
1 | Cc1c2oc3c(C)ccc(C(=O)N[C@@H]4C(=O)N[C@H](C(C)C)C(=O)N5CCC[C@H]5C(=O)N(C)CC(=O)N(C)[C@@H](C(C)C)C(=O)O[C@@H]4C)c3nc-2c(C(=O)N[C@@H]2C(=O)N[C@H](C(C)C)C(=O)N3CCC[C@H]3C(=O)N(C)CC(=O)N(C)[C@@H](C(C)C)C(=O)O[C@@H]2C)c(N)c1=O [Dactinomycin] | 8.17 nM | 22.7 nM | 27.5 nM | 7.79 nM | 8.51 nM | 18.9 nM | 11.4 nM | 13.5 nM | 8.76 nM | 24.1 nM | 35.2 nM | 18.2 | 11.2 | 17.9 | 16.8 | 12 | 19.8 | 23.2 | 20.1 | 20.2 | 20 | 16 | 16.1 | 20.5 | 17.4 | 16.1 | 9.56 nM | 8.33 nM | 4.5 nM | 9.03 nM
2 | COc1cccc2c1C(=O)c1c(O)c3c(c(O)c1C2=O)C[C@@](O)(C(C)=O)C[C@@H]3O[C@H]1C[C@H](N)[C@H](O)[C@H](C)O1 [Daunorubicin] | 133 nM | 385 nM | 375 nM | 134 nM | 350 nM | 398 nM | 208 nM | 189 nM | 282 nM | 341 nM | 393 nM | 6.95 | 2.33 | 4.51 | 7.41 | 3.69 | 5.81 | 6.6 | 3.18 | 6.15 | 7.3 | 4.19 | 1.34 | 6.15 | 5.38 | 1.15 | 164 nM | 150 nM | 138 nM | 124 nM
3 | Cn1cc(C2=C(c3cn(C4CCN(Cc5ccccn5)CC4)c4ccccc34)C(=O)NC2=O)c2ccccc21 [Enzastaurin] | > 10000 nM | > 10000 nM | > 10000 nM | > 10000 nM | > 10000 nM | > 10000 nM | > 10000 nM | > 10000 nM | > 10000 nM | > 10000 nM | > 10000 nM | 0 | 0 | 0 | 0 | 0 | 0 | 0 | 0 | 0 | 0 | 0 | 0 | 0 | 0 | 0 | > 10000 nM | > 10000 nM | > 10000 nM | > 10000 nM
4 | C[C@]12CC[C@@H]3c4ccc(OC(=O)N(CCCl)CCCl)cc4CC[C@H]3[C@@H]1CC[C@@H]2O [Estramustine] | > 990000 nM | > 990000 nM | > 990000 nM | > 990000 nM | > 990000 nM | > 990000 nM | > 990000 nM | > 990000 nM | > 990000 nM | > 990000 nM | > 990000 nM | 0 | 0 | 0 | 0 | 0 | 0 | 0 | 0 | 0 | 0 | 0 | 0 | 0 | 0 | 0 | > 990000 nM | > 990000 nM | > 990000 nM | > 990000 nM

Continued, in another order:

Row | relative IC50 [12] | relative IC50 ([13]; 4-OH-tamoxifen in medium 0 µM) | relative IC50 ([13]; 4-OH-tamoxifen in medium 1 µM) | relative IC50 ([14]; 4-OH-tamoxifen in medium 0 µM) | relative IC50 ([14]; 4-OH-tamoxifen in medium 1 µM) | relative IC50 [17] | relative IC50 ([18]; 4-OH-tamoxifen in medium 0 µM) | relative IC50 ([18]; 4-OH-tamoxifen in medium 1 µM) | relative IC50 [19] | relative IC50 [20] | relative IC50 [22] | Structure (SMILES) | drug sensitivity score [1] | drug sensitivity score ([2]; 4-OH-tamoxifen in medium 0 µM) | drug sensitivity score ([2]; 4-OH-tamoxifen in medium 1 µM) | drug sensitivity score ([3]; 4-OH-tamoxifen in medium 0 µM) | drug sensitivity score ([3]; 4-OH-tamoxifen in medium 1 µM) | drug sensitivity score [4] | drug sensitivity score [5] | drug sensitivity score [6] | drug sensitivity score ([7]; 4-OH-tamoxifen in medium 0 µM) | drug sensitivity score ([7]; 4-OH-tamoxifen in medium 1 µM) | drug sensitivity score [8] | drug sensitivity score [9] | drug sensitivity score ([10]; 4-OH-tamoxifen in medium 0 µM) | drug sensitivity score ([10]; 4-OH-tamoxifen in medium 1 µM) | drug sensitivity score [11] | relative IC50 [15] | relative IC50 [16] | relative IC50 ([21]; 4-OH-tamoxifen in medium 0 µM) | relative IC50 ([21]; 4-OH-tamoxifen in medium 1 µM)
5 | > 10000 nM | > 10000 nM | > 10000 nM | > 10000 nM | > 10000 nM | > 10000 nM |  | > 10000 nM | > 10000 nM | > 10000 nM | > 10000 nM | Nc1ncn([C@H]2C[C@H](O)[C@@H](CO)O2)c(=O)n1 [Decitabine (Dacogen)] | 0 | 0 | 0 | 0 | 0 | 0 | 0 | 0 | 1.25 | 0 | 0 | 0 | 0 | 0 | 0 | > 10000 nM | > 10000 nM | > 10000 nM | > 10000 nM
6 | > 10000 nM | > 10000 nM | > 10000 nM | > 10000 nM | > 10000 nM | > 10000 nM | > 10000 nM | > 10000 nM | > 10000 nM | > 10000 nM | > 10000 nM | CN1CCN(c2ccc3nc(-c4c(N)c5c(F)cccc5[nH]c4=O)[nH]c3c2)CC1 [Dovitinib (CHIR-258)] | 0 | 0 | 0 | 0 | 0 | 0 | 0 | 0 | 0 | 0 | 0 | 0 | 0 | 0 | 0 | > 10000 nM | > 10000 nM | > 10000 nM | > 10000 nM
7 | 117 nM | 137 nM | 170 nM | 199 nM | 390 nM | 154 nM | 123 nM | 146 nM | 212 nM | 226 nM | 303 nM | Cc1c(CN2CCN(C(=O)[C@H](C)O)CC2)sc2c(N3CCOCC3)nc(-c3cnc(N)nc3)nc12 [GDC-0980] | 15.3 | 13.5 | 18.4 | 14.7 | 12.1 | 13.5 | 14.9 | 18.3 | 17.4 | 15.9 | 12.4 | 9.79 | 16.5 | 11.8 | 15.1 | 178 nM | 160 nM | 86.5 nM | 145 nM
